ChEMBL document CHEMBL1131984, “Synthesis and antitumour activity of novel diterpenequinone salvicine and the analogs” (Bioorg Med Chem Lett, 1999)
Values joined by “and” are separate entries in the source; they are usually repeats but may differ in a detail not shown here. Identical values can stand only once.

Experiments:
HL-60 [1] = assay: In vitro cytotoxic activity against HL-60 human leukemia cell line by MTT assay (microculture terazolium colorimetric); assay type: functional, cell-based
SPC-A4 = assay: In vitro cytotoxic activity against SPC-A4 lung cancer solid tumor cell line by MTT assay (microculture terazolium colorimetric); assay type: functional, cell-based; conditions: Homo sapiens
P388 = assay: In vitro cytotoxic activity against P388 mouse leukemia cell line by MTT assay (microculture terazolium colorimetric); assay type: functional, cell-based
SGC-7901 = assay: In vitro cytotoxic activity against SGC-7901 stomach cancer solid tumor cell line by MTT assay (microculture terazolium colorimetric); assay type: functional, cell-based; conditions: Homo sapiens
Mus musculus [2] = assay: (§1) Ratio of the tumor weight of mice at the initial stage and the final stage of the experiment was reported at a dose of 3.0 mg/kg (day 7); assay type: functional
Mus musculus [3] = assay: as §1; assay type: functional; remark: listed apart in the source
Mus musculus [4] = assay: In vivo inhibitory activity against murine S-180 sarcoma at a dose of 3.0 mg/kg (day 7); assay type: functional
Mus musculus [5] = assay: In vivo inhibitory activity against murine lewis lung cancer at a dose of 5.0 mg/kg i.p. (day10); assay type: functional; conditions: route intraperitoneal
Mus musculus [6] = assay: Ratio of the tumor weight of mice at the initial stage and the final stage of the experiment was reported at a dose of 5.0 mg/kg i.p. (day10); assay type: functional; conditions: route intraperitoneal
HL-60 [7] = assay: In vitro cytotoxic activity against HL-60 human leukemia cell line was determined by MTT assay (microculture terazolium colorimetric); assay type: functional, cell-based
Mus musculus [8] = assay: Ratio of the tumor weight of mice at the initial stage and the final stage of the experiment was reported at a dose of 0.2 ml/mouse (Q2dx10) administered i.p.; assay type: functional
Mus musculus [9] = assay: In vivo inhibitory activity against human lung adenocarcinoma xenograft LAX-83 in mice at a dose of 2.0 mg/kg (Q2dx10) administered i.p.; assay type: functional; conditions: route intraperitoneal
Mus musculus [10] = assay: In vivo inhibitory activity against human lung adenocarcinoma xenograft A-549 in mice at a dose of 2.0 mg/kg (Q2dx10) administered i.p.; assay type: functional; conditions: route intraperitoneal
Mus musculus [11] = assay: In vivo inhibitory activity against human lung adenocarcinoma xenograft A-549 in mice at a dose of 2.0 mg/kg (Q2dx9) administered i.p.; assay type: functional; conditions: A549, ip, route intraperitoneal
Mus musculus [12] = assay: Ratio of the tumor weight of mice at the initial stage and the final stage of the experiment was reported at a dose of 0.2 ml/mouse (Q2dx9) administered i.p.; assay type: functional
Mus musculus [13] = assay: Ratio of the tumor weight of mice at the initial stage and the final stage of the experiment was reported at a dose of 0.2 ml/mouse (Q2dx10) administered i.p.; 10/10; assay type: functional

Compound	IC50 (HL-60 [1]) [nM]	IC50 (SPC-A4) [nM]	IC50 (P388) [nM]	IC50 (SGC-7901) [nM]	also measured
C=C(C)[C@H](CCc1c(C)ccc2c1C(=O)C(=O)C(C(C)C)=C2)OO	3700	2900	3700	2220	–
COc1cc([C@@H]2c3cc4c(cc3[C@@H](O[C@@H]3O[C@@H]5CO[C@@H](C)O[C@H]5[C@H](O)[C@H]3O)[C@H]3COC(=O)[C@H]23)OCO4)cc(OC)c1O [ETOPOSIDE]	–	–	–	–	Tumor weight (Mus musculus [2]): 0.99 g; Tumor weight (Mus musculus [3]): 1.09 g and 1.06 g; Inhibition (Mus musculus [4]): 40% and 39.4% and 61.3%; inhibition in vivo at 5 mg/kg (Mus musculus [5]; Mus musculus, Lung, ip, 240 h): 50.3%; Inhibition (Mus musculus [5]; 5 mg/kg): 48.5%; Tumor weight (Mus musculus [6]): 0.73 g and 1.03 g
CC(C)=CCCc1c(C)ccc2c1C(=O)C(=O)C(C(C)C)=C2	–	2750	1950	1370	IC50 (HL-60 [7]): 2360 nM
Cc1ccc2c(c1CCC1OC1(C)C)C(=O)C(=O)C(C(C)C)=C2 (stereo not drawn)	4480	1880	3380	71500	–
CC(=O)OC(CCc1c(C)ccc2c1C(=O)C(=O)C(C(C)C)=C2)C(C)(C)O (stereo not drawn)	5040	2610	3390	–	–
CO[C@@]12[C@H](COC(N)=O)C3=C(C(=O)C(C)=C(N)C3=O)N1C[C@@H]1N[C@@H]12 [MITOMYCIN]	–	–	–	–	Tumor weight (Mus musculus [8]): 1.62 g and 1.71 g and 1.91 g and 1.15 g; Inhibition (Mus musculus [9]): 63.49% and 70.1% and 87.54%; inhibition in vivo at 2 mg/kg (Mus musculus [10]; Mus musculus, A549, ip): 67.9%; Inhibition (Mus musculus [10]; 2 mg/kg): 52.69%; inhibition in vivo at 2 mg/kg (Mus musculus [11]): 79.2%; Tumor weight (Mus musculus [12]): 3.43 g; Tumor weight (Mus musculus [13]): 2.64 g
